Here are results for 68 compounds from paper doi:10.1101/2021.10.07.463234v2 (biorxiv, 2021).

The structures appear in SMILES notation. Where a name gives a salt, the structure may show the parent alone.

In this assay the target is SARS-CoV-2 Mac1 (Severe acute respiratory syndrome coronavirus 2, UniProt P0DTD1). Kind of assay: biochemical. Conditions: for inhibition at 100 µM: read-out: %inhibition; for %inhibition: 100 µM, inhibitor.

Take `O=c1[nH]cnc2c1ncn2[C@@H]1O[C@H](CO)[C@@H](O)[C@H]1O` [Inosine]: the inhibition (commonly the relative decrease from the control value, in per cent) at 100 µM came out at 0%.

Regarding `CC(=O)N(CC(O)CN(C(C)=O)c1c(I)c(C(=O)NC[C@@H](O)CO)c(I)c(C(=O)NC[C@@H](O)CO)c1I)c1c(I)c(C(=O)NC[C@@H](O)CO)c(I)c(C(=O)NC[C@@H](O)CO)c1I` [Iodixanol], the inhibition at 100 µM worked out at 0.797%.

In the case of `C[C@H](O)C(=O)Nc1c(I)c(C(=O)NC(CO)CO)c(I)c(C(=O)NC(CO)CO)c1I` [Iopamidol], the inhibition at 100 µM amounted to 0%.

For `CCC(Cc1c(I)cc(I)c(N)c1I)C(=O)O` (centres unmarked) [Iopanoic acid], the inhibition at 100 µM was 0%.

Turning to `O=C(NCC(O)CO)c1c(I)c(C(=O)NCC(O)CO)c(I)c(N(CCO)C(=O)CO)c1I` (centres unmarked) [Ioversol], the inhibition at 100 µM amounted to 25.5%.

As to `CC(C)[N+]1(C)[C@@H]2CC[C@H]1C[C@@H](OC(=O)C(CO)c1ccccc1)C2` (some centres unmarked) [Ipratropium Bromide], the inhibition at 100 µM came out at 9.25%.

Take `CC(C)Oc1ccc2c(=O)c(-c3ccccc3)coc2c1` [Ipriflavone (Osteofix)]: the inhibition at 100 µM turned out to be 0%.

Turning to `CCCCC1=NC2(CCCC2)C(=O)N1Cc1ccc(-c2ccccc2-c2nnn[nH]2)cc1` [Irbesartan], the inhibition at 100 µM was determined as 2.32%.

As for `CCc1c2c(nc3ccc(OC(=O)N4CCC(N5CCCCC5)CC4)cc13)-c1cc3c(c(=O)n1C2)COC(=O)[C@]3(O)CC` [Irinotecan HCl Trihydrate], the inhibition at 100 µM is 0%.

Regarding `Nc1nc(N)nc(-c2cc(Cl)ccc2Cl)n1` [Irsogladine], the inhibition at 100 µM was found to be 22.5%.

In the case of `C[C@@H](c1nc(-c2ccc(C#N)cc2)cs1)[C@](O)(Cn1cncn1)c1cc(F)ccc1F` [Isavuconazole], the inhibition at 100 µM stood at 0%.

Take `CN[C@@H]1[C@@H](O)[C@@H](O[C@@H]2[C@@H](O)[C@H](O[C@H]3O[C@H](CN)[C@@H](O)[C@H](O)[C@H]3O)[C@@H](N)C[C@H]2NC(=O)[C@@H](O)CN)OC[C@]1(C)O` [Isepamicin Sulphate]: the inhibition at 100 µM came out at 5.6%.

`Clc1ccc(C(Cn2ccnc2)OCc2c(Cl)cccc2Cl)c(Cl)c1` (centres unmarked) [Isoconazole nitrate]: the inhibition at 100 µM came to 34.7%.

In the case of `CCC(NC(C)C)C(O)c1ccc(O)c(O)c1` (centres unmarked) [Isoetharine Mesylate], the inhibition at 100 µM was determined as 17.6%.

For `NNC(=O)c1ccncc1` [Isoniazid], the inhibition at 100 µM turned out to be 24.4%.

With `CC(C)NCC(O)c1ccc(O)c(O)c1` (centres unmarked) [Isoprenaline HCl], the inhibition at 100 µM turned out to be 5.07%.

`O=[N+]([O-])O[C@@H]1CO[C@H]2[C@@H]1OC[C@@H]2O` [Isosorbide Mononitrate]: the inhibition at 100 µM was found to be 2.49%.

Take `O[C@@H]1CO[C@H]2[C@@H]1OC[C@@H]2O` [Isosorbide]: the inhibition at 100 µM worked out at 17.9%.

On to `CC1=C(/C=C/C(C)=C/C=C/C(C)=C\C(=O)O)C(C)(C)CCC1` [Isotretinoin], for which the inhibition at 100 µM came to 0%.

As to `Cc1cc(NC(=O)C2=C(O)c3ccccc3S(=O)(=O)N2C)no1` [Isoxicam], the inhibition at 100 µM stood at 13.6%.

For the compound `Cc1ccc(C(=O)N(CCCN)[C@@H](c2nc3cc(Cl)ccc3c(=O)n2Cc2ccccc2)C(C)C)cc1` [Ispinesib (SB-715992)], the inhibition at 100 µM was determined as 0%.

For the compound `COC(=O)C1=C(C)NC(C)=C(C(=O)OC(C)C)C1c1cccc2nonc12` (centres unmarked) [Isradipine], the inhibition at 100 µM was determined as 0%.

In the case of `CCn1c(=O)c2c(nc(/C=C/c3ccc(OC)c(OC)c3)n2C)n(CC)c1=O` [Istradefylline], the inhibition at 100 µM was 28.9%.

Regarding `COc1ccc(C(=O)NCc2ccc(OCCN(C)C)cc2)cc1OC` [Itopride hydrochloride], the inhibition at 100 µM was found to be 0%.

Take `COc1cc2c(cc1OC)CC(=O)N(CCCN(C)C[C@H]1Cc3cc(OC)c(OC)cc31)CC2` [Ivabradine HCl]: the inhibition at 100 µM was determined as 0%.

Turning to `CC(C)(C)c1cc(C(C)(C)C)c(NC(=O)c2c[nH]c3ccccc3c2=O)cc1O` [Ivacaftor (VX-770)], the inhibition at 100 µM was 5.97%.

Take `N#Cc1ccnc(N2C(=O)CC[C@H]2C(=O)N(c2cncc(F)c2)[C@H](C(=O)NC2CC(F)(F)C2)c2ccccc2Cl)c1` [Ivosidenib (AG-120)]: the inhibition at 100 µM was determined as 9.59%.

In the case of `C/C(=C\c1csc(C)n1)[C@@H]1C[C@@H]2O[C@]2(C)CCC[C@H](C)[C@H](O)[C@@H](C)C(=O)C(C)(C)[C@@H](O)CC(=O)N1` [Ixabepilone (BMS-247550)], the inhibition at 100 µM came to 5.68%.

Turning to `CC(C)C[C@H](NC(=O)CNC(=O)c1cc(Cl)ccc1Cl)B(O)O` [Ixazomib (MLN2238)], the inhibition at 100 µM came to 5.63%.

`CC(C)C[C@H](NC(=O)CNC(=O)c1cc(Cl)ccc1Cl)B1OC(=O)CC(CC(=O)O)(C(=O)O)O1` (some centres unmarked) [Ixazomib Citrate (MLN9708)]: the inhibition at 100 µM worked out at 0%.

For `NC[C@H]1O[C@H](O[C@H]2[C@H](O)[C@@H](O[C@H]3O[C@H](CO)[C@@H](O)[C@H](N)[C@H]3O)[C@H](N)C[C@@H]2N)[C@H](O)[C@@H](O)[C@@H]1O` [Kanamycin sulfate], the inhibition at 100 µM was determined as 4.88%.

Consider `O=C(c1ccc(F)cc1)C1CCN(CCn2c(=O)[nH]c3ccccc3c2=O)CC1` [Ketanserin], for which the inhibition at 100 µM was found to be 11.6%.

With `CC(C(=O)O)c1cccc(C(=O)c2ccccc2)c1` (centres unmarked) [Ketoprofen], the inhibition at 100 µM came to 0%.

Turning to `O=C(c1ccccc1)c1ccc2n1CCC2C(=O)O` (centres unmarked) [Ketorolac], the inhibition at 100 µM was determined as 11.8%.

Consider `CN1CCC(=C2c3ccccc3CC(=O)c3sccc32)CC1` [Ketotifen Fumarate], for which the inhibition at 100 µM was determined as 0%.

In the case of `CNC[C@@H](O)c1ccc(O)c(O)c1` [L-Adrenaline], the inhibition at 100 µM was determined as 31.6%.

For the compound `N=C(N)NCCC[C@H](N)C(=O)O` [L-Arginine HCl (L-Arg)], the inhibition at 100 µM was 0%.

For `N[C@H]1CONC1=O` [L-Cycloserine], the inhibition at 100 µM was 1.65%.

As to `N[C@@H](CS)C(=O)O` [L-Cysteine HCl], the inhibition at 100 µM is 0%.

Turning to `N[C@@H](CCC(=O)O)C(=O)O` [L-Glutamic acid monosodium salt], the inhibition at 100 µM is 0%.

Turning to `NC(=O)CC[C@H](N)C(=O)O` [L-Glutamine], the inhibition at 100 µM turned out to be 0%.

In the case of `CC(C)C[C@H](N)C(=O)O` [L-Leucine], the inhibition at 100 µM worked out at 0%.

In the case of `NCCCC[C@H](N)C(=O)O` [L-Lysine hydrochloride], the inhibition at 100 µM was 9.1%.

For `NCCC[C@H](N)C(=O)O` [L-Ornithine], the inhibition at 100 µM worked out at 0%.

In the case of `C[Se]CC[C@H](N)C(=O)O` [L-SelenoMethionine], the inhibition at 100 µM stood at 0%.

Take `N[C@@H](Cc1cc(I)c(Oc2cc(I)c(O)c(I)c2)c(I)c1)C(=O)O` [L-Thyroxine]: the %inhibition (in general, the share of the control response that was lost under treatment) was 10.74%.

Consider `C[N+](C)(C)C[C@H](O)CC(=O)[O-]` [L-carnitine], for which the inhibition at 100 µM was 3.55%.

Regarding `CC(CCc1ccccc1)NCC(O)c1ccc(O)c(C(N)=O)c1` (centres unmarked) [Labetalol HCl], the inhibition at 100 µM came out at 0%.

For the compound `CCOC(=O)C1=C(C)NC(C)=C(C(=O)OCC)C1c1ccccc1/C=C/C(=O)OC(C)(C)C` [Lacidipine], the inhibition at 100 µM was found to be 3.07%.

In the case of `OC[C@@H](O)[C@@H](O[C@@H]1O[C@H](CO)[C@H](O)[C@H](O)[C@H]1O)[C@H](O)[C@@H](O)CO` [Lactitol monohydrate], the “%inhibition” value is on record as 1.512%.

Consider `OC[C@@H](O)[C@@H](O[C@@H]1O[C@H](CO)[C@H](O)[C@H](O)[C@H]1O)[C@H](O)[C@@H](O)CO` [Lactitol], for which the “%inhibition” value amounted to 5.8%.

For `O=C(C[S+]([O-])Cc1ccco1)NC/C=C\COc1cc(CN2CCCCC2)ccn1` (centres unmarked) [Lafutidine], the inhibition at 100 µM worked out at 0%.

Regarding `Nc1ccn([C@@H]2CS[C@H](CO)O2)c(=O)n1` [Lamivudine], the inhibition at 100 µM was 0%.

Regarding `Nc1nnc(-c2cccc(Cl)c2Cl)c(N)n1` [Lamotrigine], the inhibition at 100 µM was determined as 12.3%.

Take `CC1(C)OC[C@@H](COC(=O)CCc2ccc(OC[C@@H](O)CNCCNC(=O)N3CCOCC3)cc2)O1` [Landiolol hydrochloride]: the inhibition at 100 µM was found to be 18%.

In the case of `Cc1c(OCC(F)(F)F)ccnc1C[S+]([O-])c1nc2ccccc2[nH]1` (centres unmarked) [Lansoprazole], the inhibition at 100 µM turned out to be 4.45%.

`CS(=O)(=O)CCNCc1ccc(-c2ccc3ncnc(Nc4ccc(OCc5cccc(F)c5)c(Cl)c4)c3c2)o1` [Lapatinib (GW-572016) Ditosylate]: the “%inhibition” value was determined as 16.67%.

With `CS(=O)(=O)CCNCc1ccc(-c2ccc3ncnc(Nc4ccc(OCc5cccc(F)c5)c(Cl)c4)c3c2)o1` [Lapatinib ditosylate monohydrate], the “%inhibition” value stood at 13.25%.

As to `CS(=O)(=O)CCNCc1ccc(-c2ccc3ncnc(Nc4ccc(OCc5cccc(F)c5)c(Cl)c4)c3c2)o1` [Lapatinib], the “%inhibition” value is recorded as 0%.

For the compound `CCN(C(=O)c1c(O)c2c(Cl)cccc2n(C)c1=O)c1ccccc1` [Laquinimod], the inhibition at 100 µM amounted to 22.6%.

For the compound `CO[C@@]1(NC(=O)C(C(=O)O)c2ccc(O)cc2)C(=O)N2C(C(=O)O)=C(CSc3nnnn3C)CO[C@@H]21` (some centres unmarked) [Latamoxef sodium], the inhibition at 100 µM amounted to 17%.

On to `CC(C)OC(=O)CCC/C=C\C[C@@H]1[C@@H](CC[C@@H](O)CCc2ccccc2)[C@H](O)C[C@@H]1O` [Latanoprost], for which the inhibition at 100 µM amounted to 23.8%.

As to `COC(=O)N[C@H](C(=O)N1CC2(CC2)C[C@H]1c1nc(-c2ccc3c(c2)C(F)(F)c2cc(-c4ccc5[nH]c([C@@H]6[C@H]7CC[C@H](C7)N6C(=O)[C@@H](NC(=O)OC)C(C)C)nc5c4)ccc2-3)c[nH]1)C(C)C` [Ledipasvir (GS5885)], the inhibition at 100 µM was 23.8%.

Turning to `Cc1oncc1C(=O)Nc1ccc(C(F)(F)F)cc1` [Leflunomide], the inhibition at 100 µM worked out at 22.5%.

As to `Nc1cccc2c1CN(C1CCC(=O)NC1=O)C2=O` (centres unmarked) [Lenalidomide (CC-5013)], the inhibition at 100 µM was 40.3%.

For `COc1cc2nccc(Oc3ccc(NC(=O)NC4CC4)c(Cl)c3)c2cc1C(N)=O` [Lenvatinib (E7080)], the “%inhibition” value worked out at 22.86%.

As to `COC(=O)C1=C(C)NC(C)=C(C(=O)OC(C)(C)CN(C)CCC(c2ccccc2)c2ccccc2)C1c1cccc([N+](=O)[O-])c1` (centres unmarked) [Lercanidipine hydrochloride], the inhibition at 100 µM was found to be 0%.

`O=C(O)CSc1nnc(Br)n1-c1ccc(C2CC2)c2ccccc12` [Lesinurad]: the inhibition at 100 µM was 2.49%.
